Assay results: patent publication US8530465B2, “1, 2-disubstituted amido-anthraquinone derivatives, preparation method and application thereof” (National Defense Medical Center, priority 2010, dated 2013)

What was measured:
hTERT = assay: Secreted alkaline phosphatase (SEAP) assay, PhTERT-SEAP (H1299); assay type: cell-based; settings: Homo sapiens, 24 hours; for activity at 1 µM: NCI-H1299, Conc. 1 μM, read-out: Relative SEAP activity (%); for activity at 10 µM: NCI-H1299, Conc. 10 μM; for activity at 10 µM / activity at 100 µM: read-out: Relative SEAP activity (%) (converted); for activity at 100 µM: NCI-H1299, Conc. 100 μM
Procedure: H1299 were grown in RPMI 1640 media supplemented with 10% fetal bovine serum, 100 units/mL penicillin and […] streptomycin in a humidified atmosphere with 5% CO2 at 37° C. Culture media were changed every three days. To establish stable cell lines that the expression of hTERT could be monitored by a reporter system, a about 3.3 kbp DNA fragment ranging from −3338 to +1 bp of the hTERT gene (hTERT promoter, PhTERT) was subcloned upstream to a secreted alkaline phosphatase gene (SEAP) and transfected into H1299 by electroporation. The stable clones were selected using G418. The stable clones derived from H1299 were cultured using conditions that are similar to their parental cells.
Secreted alkaline phosphatase was used as the reporter system to monitor the transcriptional activity of hTERT. Here, about 10^4 cells each were grown in 96-well plates and incubated at 37° C. for 24 hours and changed with fresh media. Varying amounts of drugs were added and cells were incubated for another 24 hours. Culture media were collected and heated at 65° C. for 10 min to inactivate heat-labile phosphatases. An equal amount of SEAP buffer (2 M diethanolamine, 1 mM MgCl2, and 20 mM L-homoarginine) was added to the media and p-nitrophenyl phosphate was added to a final concentration of 12 mM. Absorptions at 405 nm were taken, and the rate of absorption increase is determined (the increasing rate of absorbance at 405 nm was used to represent the activity of SEAP).

[1] = MTT assay, PhTERT-SEAP (H1299); assay type: cell-based, human; settings: human, H1299 cells carrying the PhTERT-SEAP reporter, PhTERT-SEAP (H1299); for viability at 1 μM: Conc. 1 μM, read-out: Relative MTT viability (%); for viability at 10 μM: Conc. 10 μM; for viability at 10 μM / viability at 100 μM: read-out: Relative MTT viability (%) (converted); for viability at 100 μM: Conc. 100 μM
Procedure: (§1) Further, cells were subjected to MTT assay to compare the relative toxicity or effect of each compound on cell proliferation and activity.
(§2) The above-described cells are cultured in a 96-well plate, to which was added with 25 μl MTT solution, and cultured in a 37° C. carbon dioxide incubator for 4 hours. Then, 100 μl Lysis buffer is added and incubated in a 37° C. carbon dioxide incubator overnight. An ELISA reader (Bio-Rad Model 450) is used to read optical density (O.D.) at 550 nm.

H1299 = assay: MTT assay, PhTERT-SEAP (H1299); assay type: cell-based, human; settings: H1299; for cell toxicity activity: low concentration (1 μM)
Procedure: as §1, §2

| Structure (SMILES) | activity at 1 µM (hTERT) [%] | activity at 10 µM (hTERT) [%] | activity at 100 µM (hTERT) [%] | viability at 1 μM [1] [%] | cell toxicity / inhibitory activity compared with mitoxantrone and doxorubicin (H1299; SEAP and MTT analysis) | melting point [°C] | viability at 10 μM [1] [%] | cell toxicity activity (H1299) | viability at 100 μM [1] [%] | cell toxicity (H1299; 1 μM, 10 μM, and 100 μM) | inhibitory activity among compounds CC-35 to CC-50 (H1299; SEAP and MTT analysis) |
| --- | --- | --- | --- | --- | --- | --- | --- | --- | --- | --- | --- |
| O=C(CCl)Nc1ccc2c(c1NC(=O)CCl)C(=O)c1ccccc1C2=O [CC-01, 1,2-bis-(chloroacetamido)-anthraquinone] | 15.9 ± 1.06 | 13.7 | 13.7 | 8.1 ± 3.87 | higher cell toxicity activity than mitoxantrone and doxorubicin | 254 to 255 | – | – | – | – | – |
| CC(Cl)C(=O)Nc1c(NC(=O)CCl)ccc2c1C(=O)c1ccccc1C2=O (stereo not shown) [CC-06, 1-[(2-chloropropanyl)amido]-2-(chloroacetamido)-anthraquinone] | 12.1 ± 0.44 | 1.04 | 2.38 | 9.01 ± 1.66 | higher cell toxicity activity than mitoxantrone and doxorubicin | 175 to 176 | – | – | – | – | – |
| O=C(CCl)Nc1ccc2c(c1NC(=O)c1cccc(F)c1)C(=O)c1ccccc1C2=O [CC-14, 1-(3-fluorobenzamido)-2-(chloroacetamido)-anthraquinone] | 26.9 ± 11.6 | 1.77 | 0.97 | 18.3 ± 13.5 | inhibitory activity even better than mitoxantrone and doxorubicin | 197 to 198 | 8.06 | very strong cell toxicity activity | – | – | – |
| O=C(CCl)Nc1ccc2c(c1NC(=O)c1ccc(F)cc1)C(=O)c1ccccc1C2=O [CC-15, 1-(4-fluorobenzamido)-2-(chloroacetamido)-anthraquinone] | 11.9 ± 9.77 | 2.58 | 0.52 | 10.9 ± 2.92 | inhibitory activity even better than mitoxantrone and doxorubicin | 184 to 185 | 4.2 | very strong cell toxicity activity | – | – | – |
| O=C(CN1CCN(c2ccccc2)CC1)Nc1ccc2c(c1NC(=O)c1ccccc1)C(=O)c1ccccc1C2=O [CC-33, 1-(benzamido)-2-[2-(4-phenylpiperazino)acetylamino]-anthraquinone] | 85.9 ± 8.01 | 97.9 ± 4.82 | 89.6 ± 3.37 | 86.3 ± 2.6 | – | 225 to 226 | 110 ± 8.53 | – | 88 ± 6.32 | no significant cell toxicity | – |
| Cc1ccc(C(=O)Nc2c(NC(=O)CN3CCC4(CC3)OCCO4)ccc3c2C(=O)c2ccccc2C3=O)cc1 [CC-40, 1-(4-methylbenzamido)-2-[2-(1,4-dioxa-8-azaspiro[4.5]dec-8-yl)acetylamino]-anthraquinone] | 78.9 ± 3.67 | 51.6 | 6.67 | 74.3 ± 6.15 | – | 197 to 198 | 55.5 | – | 16.8 | – | – |
| Cc1ccc(C(=O)Nc2c(NC(=O)CN3CCOCC3)ccc3c2C(=O)c2ccccc2C3=O)cc1 [CC-41, 1-(4-methylbenzamido)-2-[(2-morpholinoacetyl)amino]-anthraquinone] | 98.37 ± 0.9 | 54.2 | 3.75 | 81.5 ± 6.24 | – | 225 to 226 | 56.7 | – | 15.5 | – | – |
| Cc1ccc(C(=O)Nc2c(NC(=O)CN3CCSCC3)ccc3c2C(=O)c2ccccc2C3=O)cc1 [CC-42, 1-(4-methylbenzamido)-2-[2-(1,4-thiazinan-4-yl)acetylamino]-anthraquinone] | 88 ± 1.2 | 72.6 | 12.2 | 85.8 ± 7.69 | – | 210 to 211 | 70 | – | 20 | – | – |
| Cc1ccc(C(=O)Nc2c(NC(=O)CN3CCN(CCO)CC3)ccc3c2C(=O)c2ccccc2C3=O)cc1 [CC-44, 1-(4-methylbenzamido)-2-[2-(4-(2-hydroxyethyl)piperazino]acetylamino]-anthraquinone] | 77 ± 9.13 | 8.09 | -1.24 | 71.5 ± 5.12 | – | 210 to 211 | 44.8 | – | – | – | higher inhibitory activity |
| Cc1ccc(C(=O)Nc2c(NC(=O)CN3CCN(c4ccccc4)CC3)ccc3c2C(=O)c2ccccc2C3=O)cc1 [CC-45, 1-(4-methylbenzamido)-2-[2-(4-phenylpiperazino)acetylamino]-anthraquinone] | 93.2 ± 4.68 | 88.2 | 15.9 | 80.8 ± 6.98 | – | 270 to 271 | 77 | – | 23.2 | – | – |
| Cc1ccc(C(=O)Nc2c(NC(=O)CN3CCN(c4ccccc4F)CC3)ccc3c2C(=O)c2ccccc2C3=O)cc1 [CC-46, 1-(4-methylbenzamido)-2-[2-[4-(2-fluorophenyl)piperazino]acetylamino]-anthraquinone] | 85 ± 10.8 | 76.2 | 20.1 | 79.8 ± 9.65 | – | 228 to 229 | 68.7 | – | 40.8 | – | – |
| Cc1ccc(C(=O)Nc2c(NC(=O)CN3CCN(c4ccccc4C#N)CC3)ccc3c2C(=O)c2ccccc2C3=O)cc1 [CC-47, 1-(4-methylbenzamido)-2-[2-[4-(2-cyanophenyl)piperazino]acetylamino]-anthraquinone] | 81 ± 9.56 | 74.2 | 20.8 | 72 ± 11.1 | – | 238 to 239 | 60.1 | – | 48.2 | – | – |
| COc1ccccc1N1CCN(CC(=O)Nc2ccc3c(c2NC(=O)c2ccc(C)cc2)C(=O)c2ccccc2C3=O)CC1 [CC-48, 1-(4-methylbenzamido)-2-[2-[4-(2-methoxyphenyl)piperazino]acetylamino]-anthraquinone] | 83.3 ± 2.81 | 68.3 | 12.2 | 76.4 ± 3.95 | – | 215 to 216 | 78.3 | – | 22.7 | – | – |
| Cc1ccc(C(=O)Nc2c(NC(=O)CN3CCN(c4ccccn4)CC3)ccc3c2C(=O)c2ccccc2C3=O)cc1 [CC-49, 1-(4-methylbenzamido)-2-[2-[4-(2-pyridyl)piperazino]acetylamino]-anthraquinone] | 97.1 ± 7.43 | 64.3 | 9.96 | 105 ± 3.65 | – | 258 to 259 | 100 | – | 6.46 | – | – |
| Cc1ccc(C(=O)Nc2c(NC(=O)CN3CCN(c4ncccn4)CC3)ccc3c2C(=O)c2ccccc2C3=O)cc1 [CC-50, 1-(4-methylbenzamido)-2-[2-[4-(2-pyrimidinyl)piperazino]acetylamino]-anthraquinone] | 87.1 ± 7.97 | 79.5 | 20 | 102 ± 5.76 | – | 267 to 268 | 91.5 | – | 59 | – | – |
